Laboratory results from patent US20220289794A1, “SYNTHETIC ANTIMICROBIAL PEPTIDES” (priority 2019, published 2022).
In brackets after ≈: the same amount, converted by molar mass. Non-standard residues stand in square brackets, D forms with d. Residues, ends and D or L forms follow the SMILES beside them. Dip = N[C@H](C(=O)O)C(c1ccccc1)c1ccccc1; 2Nal = N[C@@H](Cc1ccc2ccccc2c1)C(=O)O

Assays:
human red blood cells = system: human red blood cells; parameters: unit not given beside the values
S. aureus ATCC 29213 = conditions: ATCC 29213
[1] = system: Methicillin-resistant Staphylococcus aureus MRSA (ATCC BAA-1556); conditions: ATCC BAA-1556
[2] = system: Escherichia coli (ATCC 25922); conditions: ATCC 25922
[3] = system: Pseudomonas aeruginosa (ATCC 27883); conditions: ATCC 27883

Structure (SMILES) | HC50 (human red blood cells) | MIC S. aureus ATCC 29213 (S. aureus ATCC 29213) | MIC MRSA ATCC BAA-1556 [1] | MIC E. coli ATCC 25922 [2] | MIC P. aeruginosa ATCC 27883 [3]
N=C(N)NCCC[C@H](NC(=O)[C@H](CCCNC(=N)N)NC(=O)[C@@H](N)CCCNC(=N)N)C(=O)N[C@@H](Cc1ccc2ccccc2c1)C(=O)N[C@@H](Cc1ccc2ccccc2c1)C(=O)N[C@@H](Cc1ccc2ccccc2c1)C(=O)O [IFX-003-1, NH2-Arg-Arg-Arg-NaI -NaI-NaI-OH] (H-RRR[2Nal][2Nal][2Nal]-OH) | 310 | 3.1 µg/mL (≈ 2.87 µM) | 3.1 µg/mL (≈ 2.87 µM) | 16 µg/mL (≈ 14.8 µM) | 25 µg/mL (≈ 23.2 µM)
N=C(N)NCCC[C@@H]1NC(=O)[C@H](CCCNC(=N)N)NC(=O)[C@H](CCCNC(=N)N)NC(=O)[C@H](C(c2ccccc2)c2ccccc2)NC(=O)[C@H](C(c2ccccc2)c2ccccc2)NC(=O)[C@H](C(c2ccccc2)c2ccccc2)NC(=O)[C@H](C(c2ccccc2)c2ccccc2)NC(=O)[C@H](CCCNC(=N)N)NC1=O [IFX-005, c[Arg-Arg-Arg-Arg-Dip-Dip-Dip-Dip]] (cyclo([Dip][Dip][Dip][Dip]RRRR)) | 95 | 3.1 µg/mL (≈ 2.04 µM) | 6.2 µg/mL (≈ 4.08 µM) | 25 µg/mL (≈ 16.5 µM) | 25 µg/mL (≈ 16.5 µM)
N=C(N)NCCC[C@H](NC(=O)[C@H](CCCNC(=N)N)NC(=O)[C@@H](N)CCCNC(=N)N)C(=O)N[C@@H](CCCNC(=N)N)C(=O)N[C@H](C(=O)N[C@H](C(=O)N[C@H](C(=O)N[C@H](C(=O)O)C(c1ccccc1)c1ccccc1)C(c1ccccc1)c1ccccc1)C(c1ccccc1)c1ccccc1)C(c1ccccc1)c1ccccc1 [IFX-005-1, NH2-Arg-Arg-Arg-Arg-Dip-Dip-Dip-Dip-OH] (H-RRRR[Dip][Dip][Dip][Dip]-OH) | 135 | 6.2 µg/mL (≈ 4.04 µM) | 6.2 µg/mL (≈ 4.04 µM) | 50 µg/mL (≈ 32.6 µM) | 50 µg/mL (≈ 32.6 µM)
N=C(N)NCCC[C@@H]1NC(=O)[C@H](CCCNC(=N)N)NC(=O)[C@H](CCCNC(=N)N)NC(=O)[C@H](Cc2ccc3ccccc3c2)NC(=O)[C@H](Cc2ccc3ccccc3c2)NC(=O)[C@H](Cc2ccc3ccccc3c2)NC(=O)[C@H](Cc2ccc3ccccc3c2)NC(=O)[C@H](CCCNC(=N)N)NC1=O [IFX-006, c[Arg-Arg-Arg-Arg-NaI-NaI-NaI-NaI]] (cyclo([2Nal][2Nal][2Nal][2Nal]RRRR)) | 120 | 3.1 µg/mL (≈ 2.19 µM) | 6.2 µg/mL (≈ 4.39 µM) | 25 µg/mL (≈ 17.7 µM) | 50 µg/mL (≈ 35.4 µM)
N=C(N)NCCC[C@H](NC(=O)[C@H](CCCNC(=N)N)NC(=O)[C@H](CCCNC(=N)N)NC(=O)[C@@H](N)CCCNC(=N)N)C(=O)N[C@@H](Cc1ccc2ccccc2c1)C(=O)N[C@@H](Cc1ccc2ccccc2c1)C(=O)N[C@@H](Cc1ccc2ccccc2c1)C(=O)N[C@@H](Cc1ccc2ccccc2c1)C(=O)O [IFX-006-1, NH2-Arg-Arg-Arg-Arg-NaI-NaI-NaI-NaI-OH] (H-RRRR[2Nal][2Nal][2Nal][2Nal]-OH) | 140 | 3.1 µg/mL (≈ 2.17 µM) | 6.2 µg/mL (≈ 4.33 µM) | 50 µg/mL (≈ 34.9 µM) | >100 µg/mL
N=C(N)NCCC[C@H](NC(=O)[C@H](CCCNC(=N)N)NC(=O)[C@@H](N)CCCNC(=N)N)C(=O)N[C@@H](CCCNC(=N)N)C(=O)N[C@H](C(=O)N[C@H](C(=O)N[C@H](C(=O)O)C(c1ccccc1)c1ccccc1)C(c1ccccc1)c1ccccc1)C(c1ccccc1)c1ccccc1 [IFX-008-1, NH2-Arg-Arg-Arg-Arg-Dip-Dip-Dip-OH] (H-RRRR[Dip][Dip][Dip]-OH) | 210 | 3.1 µg/mL (≈ 2.36 µM) | 3.1 µg/mL (≈ 2.36 µM) | 6.2 µg/mL (≈ 4.72 µM) | 6.2 µg/mL (≈ 4.72 µM)
N=C(N)NCCC[C@@H]1NC(=O)[C@H](CCCNC(=N)N)NC(=O)[C@H](CCCNC(=N)N)NC(=O)[C@H](Cc2ccc3ccccc3c2)NC(=O)[C@H](Cc2ccc3ccccc3c2)NC(=O)[C@H](Cc2ccc3ccccc3c2)NC(=O)[C@H](CCCNC(=N)N)NC1=O [IFX-009, c[Arg-Arg-Arg-Arg-NaI-NaI-NaI]] (cyclo(RRRR[2Nal][2Nal][2Nal])) | 205 | 1.5 µg/mL (≈ 1.23 µM) | 1.5 µg/mL (≈ 1.23 µM) | 25 µg/mL (≈ 20.6 µM) | 12.5 µg/mL (≈ 10.3 µM)
N=C(N)NCCC[C@H](NC(=O)[C@H](CCCNC(=N)N)NC(=O)[C@H](CCCNC(=N)N)NC(=O)[C@@H](N)CCCNC(=N)N)C(=O)N[C@@H](Cc1ccc2ccccc2c1)C(=O)N[C@@H](Cc1ccc2ccccc2c1)C(=O)N[C@@H](Cc1ccc2ccccc2c1)C(=O)O [IFX-009-1, NH2-Arg-Arg-Arg-Arg-NaI-NaI-NaI-OH] (H-RRRR[2Nal][2Nal][2Nal]-OH) | 260 | 3.1 µg/mL (≈ 2.51 µM) | 3.1 µg/mL (≈ 2.51 µM) | 12.5 µg/mL (≈ 10.1 µM) | 12.5 µg/mL (≈ 10.1 µM)
N=C(N)NCCC[C@@H]1NC(=O)[C@H](CCCNC(=N)N)NC(=O)[C@H](CCCNC(=N)N)NC(=O)[C@H](C(c2ccccc2)c2ccccc2)NC(=O)[C@H](C(c2ccccc2)c2ccccc2)NC(=O)[C@H](CCCNC(=N)N)NC1=O [IFX-010, c[Arg-Arg-Arg-Arg-Dip-Dip]] (cyclo([Dip][Dip]RRRR)) | 270 | 6.2 µg/mL (≈ 5.79 µM) | 6.2 µg/mL (≈ 5.79 µM) | 50 µg/mL (≈ 46.7 µM) | 25 µg/mL (≈ 23.3 µM)
N=C(N)NCCC[C@H](NC(=O)[C@H](CCCNC(=N)N)NC(=O)[C@@H](N)CCCNC(=N)N)C(=O)N[C@@H](CCCNC(=N)N)C(=O)N[C@H](C(=O)N[C@H](C(=O)O)C(c1ccccc1)c1ccccc1)C(c1ccccc1)c1ccccc1 [IFX-010-1, NH2-Arg-Arg-Arg-Arg-Dip-Dip-OH] (H-RRRR[Dip][Dip]-OH) | 360 | 12.5 µg/mL (≈ 11.5 µM) | 12.5 µg/mL (≈ 11.5 µM) | 50 µg/mL (≈ 45.9 µM) | 50 µg/mL (≈ 45.9 µM)
N=C(N)NCCC[C@@H]1NC(=O)[C@H](CCCNC(=N)N)NC(=O)[C@H](CCCNC(=N)N)NC(=O)[C@H](Cc2ccc3ccccc3c2)NC(=O)[C@H](Cc2ccc3ccccc3c2)NC(=O)[C@H](CCCNC(=N)N)NC1=O [IFX-011, c[Arg-Arg-Arg-Arg-NaI-NaI]] (cyclo([2Nal][2Nal]RRRR)) | 295 | 6.2 µg/mL (≈ 6.08 µM) | 6.2 µg/mL (≈ 6.08 µM) | 50 µg/mL (≈ 49.1 µM) | 50 µg/mL (≈ 49.1 µM)
N=C(N)NCCC[C@H](NC(=O)[C@H](CCCNC(=N)N)NC(=O)[C@H](CCCNC(=N)N)NC(=O)[C@@H](N)CCCNC(=N)N)C(=O)N[C@@H](Cc1ccc2ccccc2c1)C(=O)N[C@@H](Cc1ccc2ccccc2c1)C(=O)O [IFX-011-1, NH2-Arg-Arg-Arg-Arg-NaI-NaI-OH] (H-RRRR[2Nal][2Nal]-OH) | 310 | 6.2 µg/mL (≈ 5.98 µM) | 6.2 µg/mL (≈ 5.98 µM) | 50 µg/mL (≈ 48.2 µM) | >100 µg/mL
N=C(N)NCCC[C@@H]1NC(=O)[C@H](CCCNC(=N)N)NC(=O)[C@H](CCCNC(=N)N)NC(=O)[C@H](C(c2ccccc2)c2ccccc2)NC(=O)[C@H](C(c2ccccc2)c2ccccc2)NC(=O)[C@H](C(c2ccccc2)c2ccccc2)NC(=O)[C@H](CCCNC(=N)N)NC(=O)[C@H](CCCNC(=N)N)NC1=O [IFX-012, c[Arg-Arg-Arg-Arg-Arg-Dip-Dip-Dip]] (cyclo([Dip][Dip][Dip]RRRRR)) | 195 | 6.2 µg/mL (≈ 4.27 µM) | 6.2 µg/mL (≈ 4.27 µM) | 25 µg/mL (≈ 17.2 µM) | 25 µg/mL (≈ 17.2 µM)
N=C(N)NCCC[C@@H]1NC(=O)[C@H](CCCNC(=N)N)NC(=O)[C@H](CCCNC(=N)N)NC(=O)[C@H](Cc2ccc3ccccc3c2)NC(=O)[C@H](Cc2ccc3ccccc3c2)NC(=O)[C@H](Cc2ccc3ccccc3c2)NC(=O)[C@H](CCCNC(=N)N)NC(=O)[C@H](CCCNC(=N)N)NC1=O [IFX-013, c[Arg-Arg-Arg-Arg-Arg-NaI-NaI-NaI]] (cyclo([2Nal][2Nal][2Nal]RRRRR)) | 230 | 6.2 µg/mL (≈ 4.52 µM) | 6.2 µg/mL (≈ 4.52 µM) | 50 µg/mL (≈ 36.4 µM) | 25 µg/mL (≈ 18.2 µM)
N=C(N)NCCC[C@H](NC(=O)[C@H](CCCNC(=N)N)NC(=O)[C@H](CCCNC(=N)N)NC(=O)[C@H](CCCNC(=N)N)NC(=O)[C@@H](N)CCCNC(=N)N)C(=O)N[C@@H](Cc1ccc2ccccc2c1)C(=O)N[C@@H](Cc1ccc2ccccc2c1)C(=O)N[C@@H](Cc1ccc2ccccc2c1)C(=O)O [IFX-013-1, NH2-Arg-Arg-Arg-Arg-Arg-NaI-NaI-NaI-OH] (H-RRRRR[2Nal][2Nal][2Nal]-OH) | 200 | 3.1 µg/mL (≈ 2.23 µM) | 3.1 µg/mL (≈ 2.23 µM) | 25 µg/mL (≈ 18 µM) | 25 µg/mL (≈ 18 µM)
